Results from patent publication US20050004134A1, “Thiazole derivative and pharmaceutical use thereof” (priority 2001, published 2005).

melting point | Compound
105 to 106 °C | CC(C)NC(=O)c1nc(-c2cccc(Cl)c2)c(-c2ccc(=O)n(C(C)C)n2)s1 [Example 187, 4-(3-chlorophenyl)-N-isopropyl-5-(1-isopropyl-6-oxo-1,6-dihydro-3-pyridazinyl)-1,3-thiazole-2-carboxamide]
224 to 225 °C | CC(C)n1nc(-c2sc(NC(=O)CCN3CCCC3)nc2-c2ccccc2)ccc1=O.Cl
189 to 190 °C | CC(C)n1nc(-c2sc(NC(=O)CN3CCCCC3)nc2-c2ccccc2)ccc1=O [Example 132, N-[5-(1 Isopropyl-6-oxo-1,6-dihydro-3-pyridazinyl)-4-phenyl-1,3-thiazol-2-yl]-2-(1-piperidinyl)acetamide]
> 250 °C | CC(C)n1nc(-c2sc(N)nc2-c2ccccc2)ccc1=O [Example 1, 6-(2-amino-4-phenyl-1,3-thiazol-5-yl)-2-isopropyl-3(2H)-pyridazinone]
139 to 141 °C | CC(C)NCc1ccc(C(=O)Nc2nc(-c3ccccc3)c(-c3ccc(=O)n(C(C)C)n3)s2)cc1 [Example 152, 4-[(Isopropylamino)methyl]-N-[5-(1-isopropyl-6-oxo-1,6-dihydro-3-pyridazinyl)-4-phenyl-1,3-thiazol-2-yl]benzamide]
213 to 215 °C | CC(C)n1nc(-c2sc(C(N)=O)nc2-c2ccccc2F)ccc1=O [Example 163, 4-(2-Fluorophenyl)-5-(1-isopropyl-6-oxo-1,6-dihydro-3-pyridazinyl)-1,3-thiazole-2-carboxamide]
122 to 123.5 °C | CC(C)NC(=O)c1nc(-c2ccc(F)cc2)c(-c2ccc(=O)n(C(C)C)n2)s1 [Example 186, 4-(4-fluorophenyl)-N-isopropyl-5-(1-isopropyl-6-oxo-1,6-dihydro-3-pyridazinyl)-1,3-thiazole-2-carboxamide]
172 to 174 °C | CC(C)n1nc(-c2sc(NC(=O)c3ccc(CN(C)CCc4ccccn4)cc3)nc2-c2ccccc2)ccc1=O [Example 147, N-[5-(1-Isopropyl-6-oxo-1,6-dihydro-3-pyridazinyl)-4-phenyl-1,3-thiazol-2-yl]-4-({methyl[2-(2-pyridinyl)ethyl]amino}methyl)benzamide]
> 250 °C | COCCCNCC(=O)Nc1nc(-c2ccccc2)c(-c2ccc(=O)n(C(C)C)n2)s1.Cl
199 to 200 °C | CC(C)n1nc(-c2sc(NC(=O)N(C)C)nc2-c2ccccc2)ccc1=O [Example 50, N′-[5-(1-Isopropyl-6-oxo-1,6-dihydro-3-pyridazinyl)-4-phenyl-1,3-thiazol-2-yl]-N,N-dimethylurea]
235.5 to 237 °C | CC(C)n1nc(-c2sc(N)nc2-c2cccc(Cl)c2)ccc1=O [Example 81, 6-[2-Amino-4-(3-chlorophenyl)-1,3-thiazol-5-yl]-2-isopropyl-3(2H)-pyridazinone]
134 to 135.5 °C | CCCn1nc(-c2sc(C(=O)NCc3ccccn3)nc2-c2ccccc2)ccc1=O [Example 203, 5-(6-Oxo-1-propyl-1,6-dihydro-3-pyridazinyl)-4-phenyl-N-(2-pyridinylmethyl)-1,3-thiazole-2-carboxamide]
176.5 to 177.5 °C | CC(C)n1nc(-c2sc(C(=O)NCc3ccccn3)nc2-c2ccccc2)ccc1=O [Example 210, 5-(1-isopropyl-6-oxo-1,6-dihydro-3-pyridazinyl)-4-phenyl-N-(2-pyridinylmethyl)-1,3-thiazole-2-carboxamide]
221 to 222 °C | Cc1ccccc1C(=O)Nc1nc(-c2ccccc2)c(-c2ccc(=O)n(C(C)C)n2)s1 [Example 34, N-[5-(1-Isopropyl-6-oxo-1,6-dihydro-3-pyridazinyl)-4-phenyl-1,3-thiazol-2-yl]-2-methylbenzamide]
231 to 232 °C | CC(C)n1nc(-c2sc(NC(=O)N3CCOCC3)nc2-c2ccccc2)ccc1=O [Example 32, N-[5-(1-Isopropyl-6-oxo-1,6-dihydro-3-pyridazinyl)-4-phenyl-1,3-thiazol-2-yl]-4-morpholinecarboxamide]
111 to 112 °C | CC(C)n1nc(-c2sc(C(=O)N3CCCCC3)nc2-c2ccccc2)ccc1=O [Example 218, 2-Isopropyl-6-[4-phenyl-2-(1-piperidinylcarbonyl)-1,3-thiazol-5-yl]-3(2H)-pyridazinone]
204 to 205 °C | Br.CCCCNc1nc(-c2ccccc2)c(-c2ccc(=O)n(C(C)C)n2)s1
244 to 246 °C | CC(C)n1nc(-c2sc(NC(=O)CN3CCN(C)CC3)nc2-c2ccccc2)ccc1=O.Cl.Cl
245 to 246 °C | CC(C)n1nc(-c2sc(NC(=O)c3ccccn3)nc2-c2ccccc2)ccc1=O [Example 26, N-[5-(1-Isopropyl-6-oxo-1,6-dihydro-3-pyridazinyl)-4-phenyl-1,3-thiazol-2-yl]-2-pyridinecarboxamide]
221 to 222.5 °C | O=C(NCc1ccccn1)c1nc(-c2ccccc2)c(-c2ccc(=O)[nH]n2)s1 [Example 200, 5-(6-oxo-1,6-dihydro-3-pyridazinyl)-4-phenyl-N-(2-pyridinylmethyl)-1,3-thiazole-2-carboxamide]
167.5 to 168.5 °C | C=CCn1nc([SH]2C=C(c3ccccc3)N=C2C(=O)NC2CC2)ccc1=O (stereo not drawn) [Example 193, S-(1-allyl-6-oxo-1,6-dihydro-3-pyridazinyl)-N-cyclopropyl-4-phenyl-1,3-thiazole-2-carboxamide]

melting point | Compound
219 to 221 °C | COc1ccc(C(=O)Nc2nc(-c3ccccc3)c(-c3ccc(=O)n(C(C)C)n3)s2)cc1 [Example 45, N-[5-(1-Isopropyl-6-oxo-1,6-dihydro-3-pyridazinyl)-4-phenyl-1,3-thiazol-2-yl]-4-methoxybenzamide]
> 250 °C | NC(=O)c1nc(-c2ccccc2)c(-c2ccc(=O)[nH]n2)s1 [Example 158, 5-(6-oxo-1,6-dihydro-3-pyridazinyl)-4-phenyl-1,3-thiazole-2-carboxamide]
190 to 193 °C | COC(=O)Cn1nc(-c2sc(N)nc2-c2ccccc2)ccc1=O [Example 89, Methyl [3-(2-amino-4-phenyl-1,3-thiazol-5-yl)-6-oxo-1 (6H)-pyridazinyl]acetate]
247.5 to 249 °C | CC(C)n1nc(-c2sc(C(=O)NCC(N)=O)nc2-c2ccccc2)ccc1=O [Example 222, N-(2-amino-2-oxoethyl)-5-(1-isopropyl-6-oxo-1,6-dihydro-3-pyridazinyl)-4-phenyl-1,3-thiazole-2-carboxamide]
> 250 °C | CC(C)n1nc(-c2sc(C(N)=S)nc2-c2ccccc2)ccc1=O [Example 240, 5-(1-isopropyl-6-oxo-1,6-dihydro-3-pyridazinyl)-4-phenyl-1,3-thiazole-2-carbothioamide]
155 to 157 °C | CC(C)n1nc(-c2sc(C(=O)NCc3ccncc3)nc2-c2ccc(F)cc2)ccc1=O [Example 236, 4-(4-Fluorophenyl)-5-(1-isopropyl-6-oxo-1,6-dihydro-3-pyridazinyl)-N-(4-pyridinylmethyl)-1,3-thiazole-2-carboxamide]
203.5 to 205 °C | CC(C)n1nc(-c2sc(C(=O)NCc3ccccn3)nc2-c2ccc(F)cc2)ccc1=O [Example 211, 4-(4-Fluorophenyl)-5-(1-isopropyl-6-oxo-1,6-dihydro-3-pyridazinyl)-N-(2-pyridinylmethyl)-1,3-thiazole-2-carboxamide]
164.5 to 166.5 °C | CONC(=O)c1nc(-c2ccc(F)cc2)c(-c2ccc(=O)n(C(C)C)n2)s1 [Example 238, 4-(4-fluorophenyl)-5-(1-isopropyl-6-oxo-1,6-dihydro-3-pyridazinyl)-N-methoxy-1,3-thiazole-2-carboxamide]
120 to 121 °C | CCCNC(=O)c1nc(-c2ccccc2)c(-c2ccc(=O)n(Cc3ccccc3)n2)s1 [Example 174, 5-(1-benzyl-6-oxo-1,6-dihydro-3-pyridazinyl)-4-phenyl-N-propyl-1,3-thiazole-2-carboxamide]
207 to 209 °C | CC(C)n1nc(-c2sc(NC(=O)CNCCCN3CCCC3=O)nc2-c2ccccc2)ccc1=O.Cl
173 to 174 °C | CC(C)n1nc(-c2sc(NC(=O)c3cccc(Cl)c3)nc2-c2ccccc2)ccc1=O [Example 35, 3-Chloro-N-[5-(1-isopropyl-6-oxo-1,6-dihydro-3-pyridazinyl)-4-phenyl-1,3-thiazol-2-yl]benzamide]
232 to 234.5 °C | CC(C)n1nc(-c2sc(C(N)=O)nc2-c2cccc(Cl)c2)ccc1=O [Example 166, 4-(3-Chlorophenyl)-5-(1-isopropyl-6-oxo-1,6-dihydro-3-pyridazinyl)-1,3-thiazole-2-carboxamide]
252 to 253 °C | CC(C)n1nc(-c2sc(NC(=O)CN3CCOCC3)nc2-c2ccccc2)ccc1=O.Cl
167 to 169 °C | CCNc1nc(-c2ccccc2)c(-c2ccc(=O)n(C(C)C)n2)s1 [Example 62, 6-[2-(Ethylamino)-4-phenyl-1,3-thiazol-5-yl]-2-isopropyl-3(2H)-pyridazinone]
> 250 °C | CC(C)NCC(=O)Nc1nc(-c2ccccc2)c(-c2ccc(=O)n(C(C)C)n2)s1.Cl
117 to 118 °C | C=CCn1nc(-c2sc(C(=O)NCc3ccccn3)nc2-c2ccccc2)ccc1=O [Example 204, 5-(1-Allyl-6-oxo-1,6-dihydro-3-pyridazinyl)-4-phenyl-N-(2-pyridinylmethyl)-1,3-thiazole-2-carboxamide]
166 to 167 °C | C=CCn1nc(-c2sc(C(=O)NC(C)C)nc2-c2ccccc2)ccc1=O [Example 181, 5-(1-allyl-6-oxo-1,6-dihydro-3-pyridazinyl)-N-isopropyl-4-phenyl-1,3-thiazole-2-carboxamide]
211 to 213 °C | CC(C)n1nc(-c2sc(NC(=O)CNCCCN3CCOCC3)nc2-c2ccccc2)ccc1=O.Cl.Cl
226 to 228 °C | CC(C)n1nc(-c2sc(Nc3cccnc3)nc2-c2ccccc2)ccc1=O [Example 16, 2-Isopropyl-6-[4-phenyl-2-(3-pyridinylamino)-1,3-thiazol-5-yl]-3(2H)-pyridazinone]
237 to 238 °C | CC(C)n1nc(-c2sc(N)nc2-c2cccc(F)c2)ccc1=O [Example 80, 6-[2-Amino-4-(3-fluorophenyl)-1,3-thiazol-5-yl]-2-isopropyl-3(2H)-pyridazinone]
